Data on six compounds can be found in US7087394B2, “Methods and compositions for treating and diagnosing diabetes and related diseases involving beta-TRP” (Metabolex, Inc., priority 2003, dated 2006).

Entries after “also recorded” stand apart in the source; their conditions may differ.

One assay deals with control (A1-5) CHO cells. Briefly: Membrane potential (MP) assay in control CHO cells (A1-5). In kind it is cell-based, Chinese hamster. The note with it: control CHO line (A1-5). As to the method:
(§1) Control and βTRP-CHO cells were plated in 96-well plates 2-d before the assay. [Ca^2+]i and membrane potential (MP) responses to ATP (30 μM added at 20 sec) were measured with FLEXStation® and correspondent dyes from Molecular Devices (Sunnyvale, Calif.).
(§2) The following protocol is optimized for the measurement of membrane potential (MP) in 96-well format using Molecular Devices' Membrane Potential Dye (Cat #R-8034) on the FLEXStation (Molecular Devices). It is expected to be applicable or adaptable to the 384-well format assay with the FLIPR^384 system.
A CHO-K1 based stable cell line expressing βTRP (designated “Line A2-18” herein) is used for βTRP high throughput screening according to the follow protocol: • 1. Seed A2–18 βTrp-CHO cell and the control line (A1-5) to 96-well plates. • 2. Grow the cells for 24–48 h in DMEM medium to 85–95% confluency. • 3. Prepare following reagents immediately before the assay: • i. Assay buffer: dilute Component B of the FLIPR® assay kit and adjust pH to 7.4 with 1 N NaOH. No probenecid was needed. • ii. MP dye: suspend a vial of Component A of the FLIPR® assay kit with 10 ml of the assay buffer. • iii. Compound solutions: dilute DMSO stocks of the testing compounds to a 5× solution with the assay buffer. Raise Ca^2+ concentration in the compound solutions to 12.5 mM with 1 M CaCl2. • 4. Carefully remove the culture medium from all wells. • 5. Add 50 μl assay buffer and 50 μl MP dye. • 6. Incubate the plates at 37° C. for 30–60 minutes. • 7. Set the FLEXStation to MP assay mode and to 37° C. • 8. Transfer the cell plate and compound plate to FLEXStation. • 9. Record baseline for 18 sec (Ex 530, Em560). • 10. Add the 5× compound solutions to the cells and read another 100 sec. • 11. Save and analyze data. Reagent List • 1. Assay buffer: Hank's Balanced Salt Solution (HBSS) with 20 mM Hepes, pH 7.4 • 2. MP dye: Molecular Devices Corporation, Cat#8034 (for FLIPR) • 3. Positive control: ATP 10–100 μM (a purinergic receptor agonist) Calcimycin (A23187) 5–10 μM (a calcium ionophore) • 4. Antagonist control: • i. […]

For the next assay, the target named is T1, βTRP (Homo sapiens, UniProt Q9NZQ8).
T1 construct: expressed in transfected cells; control line A1-5
T1 sequence (Q9NZQ8 1-1165): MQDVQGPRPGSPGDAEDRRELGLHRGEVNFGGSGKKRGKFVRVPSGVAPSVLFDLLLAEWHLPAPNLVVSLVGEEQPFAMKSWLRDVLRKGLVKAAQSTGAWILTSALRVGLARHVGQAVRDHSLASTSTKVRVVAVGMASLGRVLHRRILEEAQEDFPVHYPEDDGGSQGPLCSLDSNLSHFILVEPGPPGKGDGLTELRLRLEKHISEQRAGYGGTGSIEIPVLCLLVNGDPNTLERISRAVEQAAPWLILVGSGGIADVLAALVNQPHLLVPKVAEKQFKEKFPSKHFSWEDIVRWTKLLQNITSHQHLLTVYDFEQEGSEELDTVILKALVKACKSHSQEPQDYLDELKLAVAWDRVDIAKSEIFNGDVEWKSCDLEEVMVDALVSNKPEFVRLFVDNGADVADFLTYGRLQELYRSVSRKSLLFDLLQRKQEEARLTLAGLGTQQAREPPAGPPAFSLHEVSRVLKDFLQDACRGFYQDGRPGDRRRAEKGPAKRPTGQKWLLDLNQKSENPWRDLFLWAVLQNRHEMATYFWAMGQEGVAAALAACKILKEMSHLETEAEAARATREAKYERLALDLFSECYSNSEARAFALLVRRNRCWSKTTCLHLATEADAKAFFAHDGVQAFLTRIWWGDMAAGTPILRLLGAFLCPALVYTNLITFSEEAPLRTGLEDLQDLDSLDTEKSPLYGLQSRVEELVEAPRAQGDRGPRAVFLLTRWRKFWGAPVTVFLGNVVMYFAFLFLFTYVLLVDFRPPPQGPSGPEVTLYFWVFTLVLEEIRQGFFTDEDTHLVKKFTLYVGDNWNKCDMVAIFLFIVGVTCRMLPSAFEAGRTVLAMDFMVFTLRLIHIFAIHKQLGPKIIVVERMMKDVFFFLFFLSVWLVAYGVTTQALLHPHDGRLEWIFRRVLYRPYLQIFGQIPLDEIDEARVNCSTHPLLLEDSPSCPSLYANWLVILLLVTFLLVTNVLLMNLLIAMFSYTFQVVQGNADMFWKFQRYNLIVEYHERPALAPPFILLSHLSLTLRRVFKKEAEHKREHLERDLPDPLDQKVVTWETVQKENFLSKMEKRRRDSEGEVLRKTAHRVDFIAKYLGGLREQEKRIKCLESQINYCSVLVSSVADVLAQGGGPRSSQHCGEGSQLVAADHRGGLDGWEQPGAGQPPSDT
Put plainly: Membrane potential (MP) assay in βTRP-CHO cells, FLEXStation with Membrane Potential Dye. It is filed as cell-based. The settings on record: for depolarization / MP response in βTRP-CHO cells: βTRP-CHO cell line (A2-18); for EC50: βTRP-CHO cells, membrane potential, read-out: estimated EC50 of depolarization. The method, then: as §1, §2
A CHO-K1 based stable cell line expressing βTRP (designated “Line A2-18” herein) is used for βTRP high throughput screening according to the follow protocol: • 1. Seed A2–18 βTrp-CHO cell and the control line (A1-5) to 96-well plates. • 2. Grow the cells for 24–48 h in DMEM medium to 85–95% confluency. • 3. Prepare following reagents immediately before the assay: • i. Assay buffer: dilute Component B of the FLIPR® assay kit and adjust pH to 7.4 with 1 N NaOH. No probenecid was needed. • ii. MP dye: suspend a vial of Component A of the FLIPR® assay kit with 10 ml of the assay buffer. • iii. Compound solutions: dilute DMSO stocks of the testing compounds to a 5× solution with the assay buffer. Raise Ca^2+ concentration in the compound solutions to 12.5 mM with 1 M CaCl2. • 4. Carefully remove the culture medium from all wells. • 5. Add 50 μl assay buffer and 50 μl MP dye. • 6. Incubate the plates at 37° C. for 30–60 minutes. • 7. Set the FLEXStation to MP assay mode and to 37° C. • 8. Transfer the cell plate and compound plate to FLEXStation. • 9. Record baseline for 18 sec (Ex 530, Em560). • 10. Add the 5× compound solutions to the cells and read another 100 sec. • 11. Save and analyze data. Reagent List • 1. Assay buffer: Hank's Balanced Salt Solution (HBSS) with 20 mM Hepes, pH 7.4 • 2. MP dye: Molecular Devices Corporation, Cat#8034 (for FLIPR) • 3. Positive control: ATP 10–100 μM (a purinergic receptor agonist) Calcimycin (A23187) 5–10 μM (a calcium ionophore) • 4. Antagonist control: • i. 2-APB 75 μM (from Tocris, TRP channel and IP3 receptor blocker); • ii. U73122 10 μM (from Sigma Chemicals, PLC inhibitor). Other Experimental Conditions • 1. The Cells: • iii. Maintenance: DMEM with 10% FCS and 200 μg/ml G418; Passaged 1–2 time/week with trypsin-EDTA. • iv. Confluency: 85–95% by the time of assay. • v. Plating: Regular or pre-coated plates; 24–48 h before assay. • vi. Passage: up to the 10th passage.

As for `Nc1ncnc2c1ncn2[C@@H]1O[C@H](COP(=O)(O)OP(=O)(O)OP(=O)(O)O)[C@@H](O)[C@H]1O` [ATP], in the assay with control (A1-5) CHO cells, the “depolarization / MP response in control cells” value is “No effect”. Further, at βTRP, the “depolarization / MP response in βTRP-CHO cells” value is listed as “present only in βTRP cells; also recorded: dose-dependently induced depolarization” and the EC50 was about 11 µM.
Consider `CNc1ccc2oc(C[C@H]3O[C@@]4(CC[C@H]3C)O[C@H]([C@H](C)C(=O)c3ccc[nH]3)[C@H](C)C[C@H]4C)nc2c1C(=O)O` [calcimycin, Calcimycin], for which the “depolarization / MP response in control cells” value in the assay on control (A1-5) CHO cells is reported as “No effect”. Moreover, at βTRP, the “depolarization / MP response in βTRP-CHO cells” value is recorded as “dose-dependently induced depolarization” and the 50% effective concentration (EC50) is about 0.8 µM. Besides, on βTRP (listed as A23187), the “depolarization / MP response in βTRP-CHO cells” value is on record as “induced a βTRP cell specific depolarization”.
For the compound `COc1ccc2c(c1)CC[C@@H]1[C@@H]2CC[C@]2(C)[C@@H](NCCCCCCN3C(=O)C=CC3=O)CC[C@@H]12` [U73122], on βTRP (30 minute pre-incubation before ATP), the “effect on ATP-induced MP response after pre-incubation” value is on record as “inhibited”.
With `NCCOB(c1ccccc1)c1ccccc1` [2-APB], the “suppression of MP response to ATP” value at βTRP (inhibitor added at the same time as ATP) was “over 50%”. Moreover, the “suppression of MP response to calcimycin” value on βTRP (inhibitor added at the same time as calcimycin) is listed as “over 50%”.
Turning to `C=CC[C@H](C)[C@H](C)C[C@@H](O)[C@H](O)[C@@H]1CC[C@@]2(C)O[C@@]3(C)C[C@@]4(C)O[C@H]5/C=C\C[C@H]6O[C@H]7C[C@H]8O[C@H]9C[C@@]%10(C)O[C@@](C)([C@@H]%11CC[C@H]%12O[C@@]%13(C)C[C@H]%14O[C@@]%15(C)C[C@H]%16O[C@@]%17(C)C[C@@H](O)[C@H]([C@@H]%18O[C@H]%19[C@H](O)[C@@H](O)[C@H](C[C@H](O)C[C@@H](O)[C@@H]%20O[C@H]%21[C@H](O)[C@@H](O)[C@H]([C@@H]%22O[C@@H]%23[C@H](O)[C@H]%24O[C@H]%25C[C@H]%26O[C@@H](C[C@H](O)[C@@H](O)[C@H]%27O[C@H]%28[C@H](O)[C@H]%29O[C@H]%30C[C@H]%31O[C@H]%32[C@@H](O)[C@@H](O)[C@H]([C@H](C)[C@H](O)[C@H](C)CC[C@H](OS(=O)(=O)O)[C@H](O)[C@H](C)C[C@@H](O)C(=C)/C(C)=C/CO)O[C@@H]%32[C@H](O)C[C@]%31(C)O[C@@H]%30C[C@]%29(C)O[C@@H]%28C[C@H]%27O)[C@H](OS(=O)(=O)O)[C@H](O)[C@@H]%26O[C@@H]%25C[C@@H]%24O[C@H]%23[C@H](O)[C@H]%22O)O[C@H]%21C[C@H]%20O)O[C@H]%19C[C@H]%18O)O[C@@H]%17[C@H](O)[C@]%16(C)O[C@@H]%15CC[C@]%14(C)O[C@@H]%13C[C@@H]%12O%11)[C@H](O)C[C@@H]%10O[C@]9(C)CC[C@]8(C)O[C@]7(C)C[C@@H]6O[C@@H]5C[C@@H]4O[C@@H]3C[C@@H]2O1` [MTX, maitotoxin], at βTRP (1.26 mM Ca2+ in assay buffer), the “MP response at low Ca2+” value is given as “lack of action”. Moreover, on βTRP (Ca2+ raised to 2.5–5 mM), the “[Ca2+]i or MP increase at raised Ca2+” value is “significantly enhanced”.
As to `CCCCCCC[N+](CC)(CC)CCCCc1ccc(Cl)cc1` [Clofilium], the “depolarization / MP response in control cells” value in the assay on control (A1-5) CHO cells is “triggered depolarization”. Moreover, the “depolarization / MP response in βTRP-CHO cells” value on βTRP is reported as “triggered depolarization”.
